According to patent US8821568B2, “Implant modified with non-hydroxylated vitamin D precursors” (Numat Biomedical S.L., priority 2008, dated 2014):

Assays:
Assay type in all cases: cell-based, mouse
[1] = system: MC3T3-E1 cells; assay: ALP activity in cell monolayer on coated titanium implants; details: Ti implants; day 21; UV-untreated; percentage of ethanol UV-untreated group set to 100%; mean±SEM
Experimental: (§1) To test the effect of the surface modification, 96-well plates were used. Ti disks were placed into the wells and treatments and UV-activation were performed over there. Cells grown onto untreated polystyrene tissue culture plastic (TCP) were added as a control for all the experiments. Cells were seeded at a density of 30,000 cells/cm^2 and they were maintained in α-MEM supplemented with 10% FCS and antibiotics. Culture media was collected after 48 hours, to test cytotoxicity and the production of the hydroxylated form of vitamin D, 25-D3. Cells were harvested after two days of culture using Trizol reagent (Roche Diagnostics, Mannheim, Germany), to analyze gene expression of several osteoblast differentiation markers and enzymes involved in vitamin D synthesis using real-time RT-PCR. On the other hand, MC3T3-E1 cells were harvested after 21 days to measure calcium content and ALP activity in the cell monolayer.
Cell monolayer was collected at 21 cell differentiation days and PBS 0.1% Triton X-100 was added to solubilize proteins. Cell lysates were put into freeze/thaw cycles (liquid nitrogen and 37° C. water bath) to improve protein recovery. After centrifugation at 33,000 g for 15 min at 4° C., supernatants acquired were assayed for ALP activity, calcium content and total protein determination. ALP activity was calculated by measuring the cleavage of p-Nitrophenyl Phosphate (pNPP) (Sigma, St. Louis, Mo., USA) in a soluble yellow end product which absorbs at 405 nm. A volume of 100 μl of this substrate was used in combination with 25 μl of each sample supernatant or standard point. The standard curve was prepared from calf intestinal alkaline phosphatase (CIAP, 1 U/μl) (Promega, Madison, Wis., USA) by mixing 1 μl from the stock CIAP with 5 ml of alkaline phosphatase buffer (1:5000 dilution), and then making 1:5 serial dilutions. Once the reaction was carried out, after 30 min in dark at room temperature, it was stopped with the addition of 50 μl of 3 M sodium hydroxide. At this point, absorbance was read at 405 nm.
Total protein was determined using a BCA protein assay kit (Pierce, Rockford, Ill., USA). For the analysis, cell supernatants were diluted 1:1 in PBS 0.1% Triton X-100. Standard curve and samples were analyzed as described by the manufacturer and reading the absorbance at 562 nm.

[2] = system: MC3T3-E1 cells; assay: ELISA of 25-D3 and 1,25-D3 released to the culture media, plastic wells; details: TCP; 48 hours; 2×10^−2 nmols, not irradiated; mean±SEM
Experimental: (§2) To test the effect of the different treatments onto the plastic wells, 96-well plates made of polystyrene were used and the treatments with 7-DHC performed directly onto them. Cells grown onto untreated TCP were added as a control for all the experiments. Cells were seeded at a density of 30,000 cells/cm^2 and they were maintained in α-MEM supplemented with 10% FCS and antibiotics. Culture media was collected after 48 hours, to test cytotoxicity and the production of the hydroxylated forms of vitamin D. Cells were harvested after 2 days of culture using Trizol reagent (Roche Diagnostics, Mannheim, Germany), to analyse early gene expression response of several osteoblast differentiation markers and enzymes involved in vitamin D synthesis using real-time RT-PCR.
25-D3 and 1,25-D3 released to the culture media after two days of treatment were analyzed by enzyme-linked immunosorbent assay (ELISA). Aliquots from the culture media were centrifuged at 1800 rpm for 5 minutes at 4° C. and supernatants were used for 25-D3 and 1,25-D3 determination following instructions described by the manufacturer (Immunodiagnostic Systems Ltd, Boldon, Tyne and Wear, UK).

[3] = system: MC3T3-E1 cells; assay: Real-time RT-PCR of osteoblast differentiation markers, coated titanium implants; details: Ti implants; 48 h; 2×10^−2 nmols, no UV, compared to control
Experimental: as §1
(§3) RNA was isolated from cells using a monophasic solution of phenol and guanidine thiocyanate (Trizol, Roche Diagnostics, Mannheim, Germany) according to the manufacturer's protocol. RNA was quantified at 260 nm using a Nanodrop spectrophotometer (NanoDrop Technologies, Wilmington, Del., USA).
(§4) Total RNA previously isolated was reverse-transcribed to cDNA using High Capacity RNA to cDNA kit (Applied Biosystems, Foster City, Calif.) according to the protocol of the supplier. The same amount of total RNA from each sample was converted into cDNA. Each cDNA was diluted ¼ and aliquots were stored at −20° C. until the PCR reactions were carried out.
Real-time RT-PCR was performed for two reference genes: 18S ribosomal RNA (18S rRNA), glyceraldehyde-3-phosphate dehydrogenase (GAPDH); and eleven target genes: alkaline phosphathase (ALP), Interleukin 6 (IL-6), Collagen (Coll-1), Osteocalcin (OC), Bone Morphogenetic Protein 2 (BMP-2), Osterix (Osx), Receptor activator of nuclear factor kappa-B ligand (RANKL), Osteoprogesterin (OPG) and genes involved in vitamin D synthesis such as Vitamin D3 25-hydroxylase (CYP27A1) and 25 hydroxyvitamin D3-1-alpha hydroxylase (CYP27B1). Real-time PCR were performed in the Lightcycler 480® (Roche Diagnostics, Germany). Each reaction contained 5 μl of LightCycler-FastStart DNA Master^PLUS SYBR Green I (Roche Diagnostics, Mannheim, Germany), 0.5 μM of the sense and antisense specific primers (Table 1) and 3 μl of the cDNA dilution in a final volume of 10 μl. The normal amplification program consisted of a preincubation step for denaturation of the template cDNA (10 min 95° C.), followed by 45 cycles consisting of a denaturation step (10 s 95° C.), an annealing step (10 s 60° C., except for ALP that was 10 s at 65° C., OSX with 10 s at 68° C.) and an extension step (10 s 72° C.). After each cycle, fluorescence was measured at 72° C. Every run included a negative control without cDNA template. To confirm amplification specificity, PCR products were subjected to a melting curve analysis on the LightCycler and subsequently 2% agarose/TAE gel electrophoresis, Tm and amplicon size, respectively.
To allow relative quantification after PCR, real-time efficiencies were calculated from the given slopes in the LightCycler 480 software (Roche Diagnostics, Mannheim, Germany) using serial dilutions. Relative quantification after PCR was calculated by normalizing target gene concentration in each sample by the concentration mean of the two reference genes in given sample using the Advanced relative quantification method provided by the LightCycler 480 analysis software.

[4] = system: MC3T3-E1 cells; assay: Calcium content (mineralization, ICP-AES) on coated titanium implants; details: Ti implants; 28 days; UV-untreated; data not shown
Experimental: as §1, with “On the other hand, MC3T3-E1 cells were harvested after 21 days to measure calcium content and ALP activity in the cell monolayer.” left out
[…] Cell lysates were put into freeze/thaw cycles (liquid nitrogen and 37° C. water bath) to improve protein recovery. […] ALP activity was calculated by measuring the cleavage of p-Nitrophenyl Phosphate (pNPP) (Sigma, St. Louis, Mo., USA) in a soluble yellow end product which absorbs at 405 nm. […] At this point, absorbance was read at 405 nm.
To determine calcium content samples were analyzed by inductively coupled plasma atomic emission spectrometry (Optima 5300 DV, PerkinElmer, Massachussetts, USA). […]

[5] = system: MC3T3-E1 cells; assay: Real-time RT-PCR of vitamin D hydroxylation/degradation enzymes (CYP27A1, CYP27B1, CYP24A1), plastic wells; details: TCP, 2×10^−2 nmols, not irradiated
Experimental: as §2, §3, §4
(§5) Real-time RT-PCR was performed for two reference genes: 18S ribosomal RNA (18S rRNA), glyceraldehyde-3-phosphate dehydrogenase (GAPDH), and 11 target genes alkaline phospathase (ALP), Interleukin 6 (IL-6), Collagen (Coll-1), Osteocalcin (OC), Bone Morphogenetic Protein 2 (BMP-2), Osterix (Osx), Receptor activator of nuclear factor kappa-B ligand (RANKL), Osteoprogesterin (OPG) and genes involved in vitamin D synthesis such as Vitamin D3 25-hydroxylase (CYP27A1), 25 hydroxyvitamin D3-1-alpha hydroxylase (CYP27B1) and 1,25-dihydroxyvitamin D3 24-hydroxylase (CYP24A1).
Real-time PCR were performed in the Lightcycler 480® (Roche Diagnostics, Germany). […] After each cycle, fluorescence was measured at 72° C. […]
(§6) To allow relative quantification after PCR, real-time efficiencies were calculated from the given slopes in the LightCycler 480 software (Roche Diagnostics, Mannheim, Germany) using serial dilutions. Relative quantification after PCR was calculated by normalizing target gene concentration in each sample by the concentration mean of the two reference genes in given sample using the “advanced relative quantification method” provided by the LightCycler 480 analysis software.

[6] = system: MC3T3-E1 cells; assay: Real-time RT-PCR of bone markers, plastic wells; details: TCP; 2 days; 2×10^−2 nmols, not irradiated, compared to control
Experimental: as §2, §3, §4, §5
Real-time PCR were performed in the Lightcycler 480® (Roche Diagnostics, Germany). Each reaction contained 5 μl of LightCycler-FastStart DNA Master^PLUS SYBR Green I (Roche Diagnostics, Mannheim, Germany), 0.5 μM of the sense and antisense specific primers (Table 1) and 3 μl of the cDNA dilution in a final volume of 10 μl. The normal amplification program consisted of a preincubation step for denaturation of the template cDNA (10 min 95° C.), followed by 45 cycles consisting of a denaturation step (10 s 95° C.), an annealing step (10 s 60° C., except for ALP that was 10 s at 65° C., OSX with 10 s at 68° C. and CYP24A1 at 58° C. 10 s) and an extension step (10 s 72° C.). After each cycle, fluorescence was measured at 72° C. Every run included a negative control without cDNA template. To confirm amplification specificity, PCR products were subjected to a melting curve analysis on the LightCycler and subsequently 2% agarose/TAE gel electrophoresis, Tm and amplicon size, respectively.
as §6

Row | Structure (SMILES) | ALP activity [1] [%] | 1,25-D3 detected in culture media [2] [pmol/L] | 25-D3 released to culture media [2] [nmol/L] | RANKL gene expression [3] | Calcium levels [4] | CYP27B1 mRNA expression ([5]; 48 h) | CYP24A1 mRNA levels ([5]; 2 days, data not shown) | IL-6 expression levels [6]
1 | C=C1CC[C@H](O)C/C1=C/C=C1\CCC[C@]2(C)[C@@H]([C@H](C)CCCC(C)C)CC[C@@H]12 [D3, cholecalciferol, reference compound] | 35.28±4.23 | 19.7 ± 0.7 | 9.1 ± 1.9 | Statistical significances | – | – | – | –
2 | C=C1CC[C@H](O)C/C1=C/C=C1\CCC[C@]2(C)[C@@H]([C@H](C)CCCC(C)(C)O)CC[C@@H]12 [25-D3, 25-hydroxyvitamin D3, reference compound] | 77.40±13.40 | 42 ± 4 | 415 ± 20 | – | trend to increased calcium levels | not statistically different | only detected | significantly higher expression levels
